Values of other authors as cited in patent US12201111B2, “Glyphosate formulations containing amidoalkylamine surfactants” (Monsanto Technology LLC, priority 2016, dated 2025).

Details: glyphosate in its acid form; 25° C.

In the case of `O=C(O)CNCP(=O)(O)O` [glyphosate, N-phosphonomethylglycine], the solubility in water is given as 1.16 % by weight.
